The source of these data is US20260285853A1, “COMPOUNDS AND METHODS FOR MODULATING SPLICING” (REMIX THERAPEUTICS INC., priority 2023, published 2026).

What all share (assay type): cell-based
Assay [1] has as its system HTT mRNA. In words: Splicing RT-qPCR assay (THP), Table 2A. To be noted: Table 2A (THP); for AC50: AJ mRNA increase, read-out: HTT AJ (increase in alternative junction mRNA, AC50); for IC50: CJ mRNA decrease, read-out: HTT CJ (decrease in canonical junction mRNA, IC50). (In general: In qPCR the cycle at which signal appears reflects the starting amount.)
In assay [2] the test system is MYB mRNA. Nature of the assay: Splicing RT-qPCR assay (THP), Table 2A. To be noted: Table 2A (THP); for AC50: AJ mRNA increase, read-out: MYB AJ (increase in alternative junction mRNA, AC50); for IC50: CJ mRNA decrease, read-out: MYB CJ (decrease in canonical junction mRNA, IC50).
In assay [3] the test system is HTT mRNA. In words: Gene panel canonical junction qPCR assay, decrease in CJ mRNA, Table 3. To be noted: decrease in canonical junction (CJ) mRNA, gene panel qPCR, Table 3. The method, boiled down:
(§1)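 A673 cells were plated, left to adhere for 24 h, then dosed; K562 cells were plated in 96- or 384-well format and dosed directly. Both were incubated 24 h at 37 °C with an 11-point 3-fold series (top 10 uM final). Canonical junction mRNA was then read by cDNA synthesis and qPCR.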

Assay [4] concerns MYB mRNA. Described as above. To be noted: decrease in canonical junction (CJ) mRNA, gene panel qPCR, Table 3. The method, boiled down:
as §1

Assay [5] concerns SH-SY5Y (human neuroblastoma) cells. In words: Cell viability, Cell Titer Glo 2.0 assay. To be noted: read-out: Viability SHSY5Y.3 GI50. The method in brief:
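SH-SY5Y neuroblastoma cells are exposed to test compounds for 72 hours at 37 °C and 5% CO2, with final DMSO held at 0.1%. Cell viability is then measured with the CellTiter-Glo 2.0 assay.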
(Cellular ATP, detected with luciferase, serves as a proxy for viable cell number.)

As for `Cc1cn2cc(NC(=O)c3c(F)cc(N4CCC(NC5CC5)CC4)c4cn(C)nc34)c(F)c2c(C)n1` [Compound 453, 4-[4-(cyclopropylamino)-1-piperidyl]-6-fluoro-N-(8-fluoro-1,3-dimethyl-pyrrolo[1,2-a]pyrazin-7-yl)-2-methyl-indazole-7-carboxamide], the figures for the half-maximal activity concentration (AC50) in the assay on HTT mRNA [1] and in the assay with MYB mRNA [2] were greater than 10 µM and less than 0.1 µM, respectively. The concentration for half-maximal inhibition (IC50) (in general, the midpoint of a concentration-inhibition curve) with HTT mRNA [1] was greater than 10 µM; in the assay on MYB mRNA [2], 0.1 to 1 µM; with HTT mRNA [3], greater than 10 µM; in the assay on MYB mRNA [4], 0.1 to 1 µM. The concentration for 50% growth inhibition (GI50) (usually the concentration at which growth is held to half of that of the control) in assay [5] lay within 1 to 10 µM.

For the compound `COc1cc2nn(C)cc2cc1NC(=O)c1c(F)cc(NCC2CCNCC2)c2cn(C)nc12` [Compound 454, 6-fluoro-N-(6-methoxy-2-methyl-indazol-5-yl)-2-methyl-4-(4-piperidylmethylamino)indazole-7-carboxamide], the values for the half-maximal activity concentration (AC50) with HTT mRNA [1] and in the assay with MYB mRNA [2] were greater than 10 µM and 1 to 10 µM, respectively. For the same compound, the IC50 in the assay with HTT mRNA [1], in the assay with MYB mRNA [2], in the assay on HTT mRNA [3] and in the assay on MYB mRNA [4] was greater than 10 µM in each case. For the same compound, the GI50 in assay [5] was greater than 10 µM.

`COc1cc2nn(C)cc2cc1NC(=O)c1c(F)cc(N2CC3(CNC3)C2)c2cn(C)nc12` [Compound 455, 4-(2,6-diazaspiro[3.3]-heptan-2-yl)-6-fluoro-N-(6-methoxy-2-methyl-indazol-5-yl)-2-methyl-indazole-7-carboxamide]: the figures for the AC50 in the assay on HTT mRNA [1] and in the assay on MYB mRNA [2] were greater than 10 µM and 1 to 10 µM, respectively. The IC50 with HTT mRNA [1] was greater than 10 µM; with MYB mRNA [2], 1 to 10 µM; with HTT mRNA [3], greater than 10 µM; with MYB mRNA [4], 1 to 10 µM. Moreover, in assay [5], the concentration for 50% growth inhibition (GI50) is greater than 10 µM.

`Cc1cc2cc(NC(=O)c3c(F)cc(N4CCC(NC5CC5)CC4)c4cn(C)nc34)oc2c(C)n1` [Compound 456, 4-[4-(cyclopropylamino)-1-piperidyl]-N-(5,7-dimethylfuro-[2,3-c]pyridin-2-yl)-6-fluoro-2-methyl-indazole-7-carboxamide]: the AC50 (commonly the midpoint of the concentration-response curve, whichever way the signal moves) was greater than 10 µM in the assay with HTT mRNA [1] and less than 0.1 µM with MYB mRNA [2]. Also, the concentration for half-maximal inhibition (IC50) in the assay on HTT mRNA [1] was greater than 10 µM; with MYB mRNA [2], 0.1 to 1 µM; in the assay with HTT mRNA [3], greater than 10 µM; in the assay with MYB mRNA [4], 0.1 to 1 µM. In addition, in assay [5], the GI50 lay within 1 to 10 µM.

Turning to `COc1c(NC(=O)c2ccc(N3CCC(NC4CC4)CC3)c3cn(C)nc23)cn2cc(C)nc(C)c12` [Compound 457, 4-[4-(cyclopropylamino)-1-piperidyl]-N-(8-methoxy-1,3-dimethyl-pyrrolo[1,2-a]pyrazin-7-yl)-2-methyl-indazole-7-carboxamide], the concentration at half-maximal activity (AC50) in the assay on HTT mRNA [1] and in the assay on MYB mRNA [2] was 1 to 10 µM throughout. Further, the IC50 with HTT mRNA [1], in the assay on MYB mRNA [2], in the assay on HTT mRNA [3] and with MYB mRNA [4] was 1 to 10 µM each time. The GI50 in assay [5] was in the range of 1 to 10 µM.

On to `C=CCNC1CCN(c2ccc(C(=O)Nc3cn4cc(C)nc(C)c4c3OC)c3nn(C)cc23)CC1` [Compound 458, 4-[4-(allylamino)-1-piperidyl]-N-(8-methoxy-1,3-dimethyl-pyrrolo[1,2-a]pyrazin-7-yl)-2-methyl-indazole-7-carboxamide], for which the concentration at half-maximal activity (AC50) in the assay with HTT mRNA [1] and in the assay on MYB mRNA [2] was 1 to 10 µM each time. Also, the IC50 with HTT mRNA [1], in the assay on MYB mRNA [2], in the assay with HTT mRNA [3] and in the assay on MYB mRNA [4] was 1 to 10 µM in each case. Also, the GI50 in assay [5] was 1 to 10 µM.

Consider `Cn1cc2cc(NC(=O)c3ccc(N4CCC(NC5CC5)CC4)c4cn(C)nc34)c(F)cc2n1` [Compound 459, 4-[4-(cyclopropylamino)-1-piperidyl]-N-(6-fluoro-2-methyl-indazol-5-yl)-2-methyl-indazole-7-carboxamide], for which the AC50 with HTT mRNA [1] is greater than 10 µM; with MYB mRNA [2], 0.1 to 1 µM. Besides, the IC50 in the assay on HTT mRNA [1] fell in the range of 1 to 10 µM; in the assay on MYB mRNA [2], 0.1 to 1 µM; with HTT mRNA [3], 1 to 10 µM; in the assay with MYB mRNA [4] it was 0.1 to 1 µM. Further, the concentration for 50% growth inhibition (GI50) in assay [5] is 1 to 10 µM.

For the compound `COc1nc2nn(C)cc2cc1NC(=O)c1ccc(N2CCC(NC3CC3)CC2)c2cn(C)nc12` [Compound 460, 4-[4-(cyclopropylamino)-1-piperidyl]-N-(6-methoxy-2-methyl-pyrazolo[3,4-b]-pyridin-5-yl)-2-methyl-indazole-7-carboxamide], the figures for the AC50 in the assay with HTT mRNA [1] and in the assay on MYB mRNA [2] were 1 to 10 µM and 0.1 to 1 µM, respectively. In addition, the IC50 in the assay with HTT mRNA [1] was 1 to 10 µM; with MYB mRNA [2], 0.1 to 1 µM; in the assay with HTT mRNA [3], 1 to 10 µM; in the assay with MYB mRNA [4] it was 0.1 to 1 µM. The concentration for 50% growth inhibition (GI50) in assay [5] was in the range of 1 to 10 µM.

As for `COc1c(NC(=O)c2ccc(N3CCC(NC4CC4)CC3)c3cn(C)nc23)cc2cn(C)nc2c1Cl` [Compound 461, N-(7-chloro-6-methoxy-2-methyl-indazol-5-yl)-4-[4-(cyclopropylamino)-1-piperidyl]-2-methyl-indazole-7-carboxamide], the AC50 in the assay with HTT mRNA [1] and in the assay on MYB mRNA [2] was 0.1 to 1 µM in each case. For the same compound, the half-maximal inhibitory concentration (IC50) with HTT mRNA [1], in the assay on MYB mRNA [2], with HTT mRNA [3] and in the assay with MYB mRNA [4] was 0.1 to 1 µM in each case. Besides, in assay [5], the 50% growth inhibitory concentration (GI50) was in the range of 0.1 to 1 µM.

As for `Cc1cn2cc(NC(=O)c3ccc(N4CCC(NC5CC5)CC4)c4cn(C)nc34)nc2c(-c2cnoc2)n1` [Compound 462, 4-[4-(cyclopropylamino)-1-piperidyl]-N-(8-isoxazol-4-yl-6-methyl-imidazo[1,2-a]-pyrazin-2-yl)-2-methyl-indazole-7-carboxamide], the AC50 with HTT mRNA [1] and in the assay with MYB mRNA [2] was greater than 10 µM in each case. In addition, the half-maximal inhibitory concentration (IC50) in the assay on HTT mRNA [1], with MYB mRNA [2], in the assay on HTT mRNA [3] and with MYB mRNA [4] was greater than 10 µM each time. In addition, the GI50 in assay [5] fell in the range of 1 to 10 µM.

In the case of `COc1cc2nn(C)cc2cc1NC(=O)c1c(O)cc(N2CCC(NC3CC3)CC2)c2cn(C)nc12` [Compound 463, 4-[4-(cyclopropylamino)-1-piperidyl]-6-hydroxy-N-(6-methoxy-2-methyl-indazol-5-yl)-2-methyl-indazole-7-carboxamide], the AC50 is 1 to 10 µM with HTT mRNA [1] and less than 0.1 µM in the assay on MYB mRNA [2]. Further, the IC50 with HTT mRNA [1] is 1 to 10 µM; in the assay with MYB mRNA [2] it was less than 0.1 µM; with HTT mRNA [3] it was 1 to 10 µM; with MYB mRNA [4] it was less than 0.1 µM. Besides, in assay [5], the GI50 is 0.1 to 1 µM.

For the compound `CCNCC1CCN(c2cc(F)c(C(=O)Nc3cc4cn(C)nc4cc3OC)c3nn(C)cc23)C1` (stereo not shown) [Compound 464, 4-(3-[(ethylamino)methyl]pyrrolidin-1-yl)-6-fluoro-N-(6-methoxy-2-methylindazol-5-yl)-2-methylindazole-7-carboxamide], the AC50 in the assay with HTT mRNA [1] and in the assay on MYB mRNA [2] was 0.1 to 1 µM throughout. The IC50 with HTT mRNA [1], in the assay with MYB mRNA [2], in the assay with HTT mRNA [3] and in the assay on MYB mRNA [4] was 0.1 to 1 µM throughout. The GI50 in assay [5] is 0.1 to 1 µM.

As to `Cc1cn2cc(NC(=O)c3c(F)cc(NCC4CCNCC4)c4cn(C)nc34)nc2c(C)n1` [Compound 465, N-(6,8-dimethylimidazo[1,2-a]pyrazin-2-yl)-6-fluoro-2-methyl-4-(4-piperidylmethylamino)indazole-7-carboxamide], the AC50 with HTT mRNA [1] and with MYB mRNA [2] was greater than 10 µM in each case. Besides, the 50% inhibitory concentration (IC50) in the assay with HTT mRNA [1], in the assay with MYB mRNA [2], with HTT mRNA [3] and with MYB mRNA [4] was greater than 10 µM in each case. For the same compound, the 50% growth inhibitory concentration (GI50) in assay [5] lay within 0.1 to 1 µM.
